Paper PMC6165432 (International Journal of Molecular Sciences, 2018)
Where two headings read alike, the source gives them in different places.

Legend:
mouse AhR (mAhR) = target: T1, mouse AhR (mAhR) (Mus musculus, UniProt P30561); experiment: AhR-responsive luciferase reporter gene assay in stably transfected mouse H1L6.1c3 hepatoma cells; assay type: cell-based
T1 sequence (P30561 10-805): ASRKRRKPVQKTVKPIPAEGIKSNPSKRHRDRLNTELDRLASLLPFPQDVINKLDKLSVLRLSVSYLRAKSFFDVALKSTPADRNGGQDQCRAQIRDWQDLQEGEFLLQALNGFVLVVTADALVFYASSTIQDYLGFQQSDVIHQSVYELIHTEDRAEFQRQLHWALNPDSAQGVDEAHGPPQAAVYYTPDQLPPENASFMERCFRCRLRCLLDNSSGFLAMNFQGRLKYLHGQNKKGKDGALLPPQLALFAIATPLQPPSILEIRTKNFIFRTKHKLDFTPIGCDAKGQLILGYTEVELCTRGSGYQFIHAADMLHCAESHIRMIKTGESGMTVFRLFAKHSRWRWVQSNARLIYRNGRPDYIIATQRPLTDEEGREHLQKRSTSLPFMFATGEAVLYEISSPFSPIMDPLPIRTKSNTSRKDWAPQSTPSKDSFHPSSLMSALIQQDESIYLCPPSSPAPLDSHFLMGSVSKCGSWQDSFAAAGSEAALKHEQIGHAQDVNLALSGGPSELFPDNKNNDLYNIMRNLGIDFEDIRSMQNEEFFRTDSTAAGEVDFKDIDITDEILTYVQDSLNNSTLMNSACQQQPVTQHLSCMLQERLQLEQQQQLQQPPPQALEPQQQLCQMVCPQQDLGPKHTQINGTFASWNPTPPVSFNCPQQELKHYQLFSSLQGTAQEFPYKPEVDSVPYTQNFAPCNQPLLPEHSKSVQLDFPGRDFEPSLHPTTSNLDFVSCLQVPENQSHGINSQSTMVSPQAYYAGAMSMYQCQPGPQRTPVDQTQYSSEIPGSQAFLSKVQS
Description: (§1) AhR-dependent gene transcription was determined in (A) human HG2L6.1c.1 and (B) mouse H1L6.1c.3 hepatoma cell lines that contain a stably transfected AhR-responsive luciferase reporter gene. […] Luciferase activity (Relative Light Units (RLUs)) was normalized to the maximal induction observed with TCDD in each cell line. Values represent the mean ± SD of nine independent analyses.
(§2) Recombinant mouse (H1L6.1c3) and human (HG2L6.1c1) hepatoma cells containing a stably integrated AhR-responsive luciferase reporter gene plasmid (pGudLuc6.1) were plated (750,000 cells/well) in 96-well plates and incubated at 37 °C for 24 h prior to chemical treatment. Cells were incubated with DMSO (1% (v/v)) or the indicated concentration of test chemical in DMSO for 4 h, followed by visual inspection of the cells for toxicity, washing of the cells with phosphate-buffered saline (PBS), addition of 50 µL of passive lysis buffer (Promega) and lysis of cells for 20 min at room temperature with shaking [50]. Luciferase activity in each well was measured (integrating luminescence over 10 s with a 10 s delay) in an Orion microplate luminometer (Berthold Detection Systems, Bad Wildbad, Germany) following automatic injection of Promega stabilized luciferase reagent.
(§3) Analysis of statistical significance of differences between experimental values was conducted using Two-Way ANOVA and EC50s and IC50s were calculated using nonlinear regression (three parameter) analysis in GraphPad Prism v.7 (La Jolla, CA, USA).

human AhR (hAhR) = target: T2, human AhR (hAhR) (Homo sapiens, UniProt P35869); experiment: AhR-responsive luciferase reporter gene assay in stably transfected human HG2L6.1c1 hepatoma cells
T2 sequence (P35869 11-848): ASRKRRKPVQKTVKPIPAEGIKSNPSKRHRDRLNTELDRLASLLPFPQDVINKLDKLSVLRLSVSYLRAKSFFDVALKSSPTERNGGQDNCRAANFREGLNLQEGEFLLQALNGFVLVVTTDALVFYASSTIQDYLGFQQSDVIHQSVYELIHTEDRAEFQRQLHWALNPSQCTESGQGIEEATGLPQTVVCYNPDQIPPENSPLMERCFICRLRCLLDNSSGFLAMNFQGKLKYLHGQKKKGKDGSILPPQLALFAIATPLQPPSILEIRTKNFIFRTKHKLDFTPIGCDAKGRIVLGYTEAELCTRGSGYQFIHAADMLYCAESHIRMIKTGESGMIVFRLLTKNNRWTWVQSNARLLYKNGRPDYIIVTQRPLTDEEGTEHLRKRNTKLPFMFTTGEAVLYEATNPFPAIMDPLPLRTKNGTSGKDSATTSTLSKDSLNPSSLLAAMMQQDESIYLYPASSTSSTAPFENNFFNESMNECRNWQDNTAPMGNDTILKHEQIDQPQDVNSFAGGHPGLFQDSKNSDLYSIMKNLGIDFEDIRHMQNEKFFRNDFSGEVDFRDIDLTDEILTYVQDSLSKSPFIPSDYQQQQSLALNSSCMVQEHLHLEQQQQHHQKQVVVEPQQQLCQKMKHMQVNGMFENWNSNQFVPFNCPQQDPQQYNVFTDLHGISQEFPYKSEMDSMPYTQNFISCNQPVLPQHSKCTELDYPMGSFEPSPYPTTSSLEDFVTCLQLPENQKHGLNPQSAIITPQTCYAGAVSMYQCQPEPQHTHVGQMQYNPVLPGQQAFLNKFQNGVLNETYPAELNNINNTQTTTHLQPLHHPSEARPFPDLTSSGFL
Description: as §1, §2, §3

mAhR-hAhRLBD = mAhR-hAhRLBD (Mus musculus; Homo sapiens, UniProt P30561+P35869); details: COS-1 cells cotransfected with mAhR-hAhRLBD; TCDD 10 nM, IR 1 µM, 18–20 h
Description: (§4) Cells were lysed, and lysates were analyzed for firefly luciferase activity. […] Luciferase activity (relative light units; RLU) was measured and corrected for background (DMSO) and normalized to mAhR TCDD levels. Values represent the mean ± SD of nine individual replicate analyses.
(§5) COS-1 cells were plated at a density of 75,000 cells/well and allowed to attach overnight in a 24-well plate. Cells were transiently transfected (per well) with the following amounts per well: 2 µL Lipofectamine 2000 (Invitrogen, Carlsbad, CA, USA), 20 ng wild-type (mβAhR/pcDNA3) or mutant AhR expression plasmids (in pcDNA3.1), 20 ng of mβARNT/pcDNA3 or pcDNA3.1(+) and 200 ng pGudLuc6.1 [17].

hAhR = hAhR (Homo sapiens, UniProt P35869); details: COS-1 cells cotransfected with hAhR; TCDD 10 nM, IR 1 µM, 18–20 h
Description: as §4, §5

mutant A349T mAhR = system: T3, mutant A349T mAhR; experiment: Transient transfection luciferase reporter assay in COS-1 cells, A349T mAhR; assay type: cell-based, mouse; details: COS-1 cells cotransfected with A349T mAhR; TCDD 10 nM, IR 1 µM, 18–20 h
T3 construct: contains a full-length mAhR cDNA in which the mouse PASB LBD was replaced; expressed in transfected cells; host or cells: COS-1
Description: as §4, §5

AhR [1] = details: mouse hepatoma cells ref 23; cited from earlier work
AhR [2] = details: human hepatoma cells ref 23; cited from earlier work
[3] = mouse H1L6.1c3 hepatoma cells, 4 h, mean ± SD of nine analyses, read-out: EC50 to stimulate luciferase reporter gene expression, Mouse

Chain of mAhR-hAhRLBD (P30561 with tags, fused parts or gaps, one chain of several): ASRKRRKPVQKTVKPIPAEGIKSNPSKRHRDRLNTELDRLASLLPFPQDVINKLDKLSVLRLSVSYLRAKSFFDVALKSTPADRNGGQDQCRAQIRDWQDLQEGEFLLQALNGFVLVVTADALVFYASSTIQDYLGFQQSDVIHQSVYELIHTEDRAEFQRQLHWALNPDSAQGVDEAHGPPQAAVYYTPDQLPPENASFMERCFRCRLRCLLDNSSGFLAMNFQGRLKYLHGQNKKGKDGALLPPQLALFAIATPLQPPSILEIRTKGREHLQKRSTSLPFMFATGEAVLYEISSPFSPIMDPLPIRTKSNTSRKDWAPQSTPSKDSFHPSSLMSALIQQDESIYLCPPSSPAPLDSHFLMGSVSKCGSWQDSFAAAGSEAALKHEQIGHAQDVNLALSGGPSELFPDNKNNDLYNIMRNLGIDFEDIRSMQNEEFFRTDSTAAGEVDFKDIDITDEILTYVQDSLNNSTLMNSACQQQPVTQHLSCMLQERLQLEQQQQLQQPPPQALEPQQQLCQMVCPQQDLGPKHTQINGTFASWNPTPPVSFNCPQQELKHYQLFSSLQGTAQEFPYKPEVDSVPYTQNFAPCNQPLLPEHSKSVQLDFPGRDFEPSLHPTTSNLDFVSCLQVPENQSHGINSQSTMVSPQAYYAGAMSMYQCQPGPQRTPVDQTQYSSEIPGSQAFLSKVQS
Chain of mAhR-hAhRLBD (P53762 2-791 partner, one chain of several): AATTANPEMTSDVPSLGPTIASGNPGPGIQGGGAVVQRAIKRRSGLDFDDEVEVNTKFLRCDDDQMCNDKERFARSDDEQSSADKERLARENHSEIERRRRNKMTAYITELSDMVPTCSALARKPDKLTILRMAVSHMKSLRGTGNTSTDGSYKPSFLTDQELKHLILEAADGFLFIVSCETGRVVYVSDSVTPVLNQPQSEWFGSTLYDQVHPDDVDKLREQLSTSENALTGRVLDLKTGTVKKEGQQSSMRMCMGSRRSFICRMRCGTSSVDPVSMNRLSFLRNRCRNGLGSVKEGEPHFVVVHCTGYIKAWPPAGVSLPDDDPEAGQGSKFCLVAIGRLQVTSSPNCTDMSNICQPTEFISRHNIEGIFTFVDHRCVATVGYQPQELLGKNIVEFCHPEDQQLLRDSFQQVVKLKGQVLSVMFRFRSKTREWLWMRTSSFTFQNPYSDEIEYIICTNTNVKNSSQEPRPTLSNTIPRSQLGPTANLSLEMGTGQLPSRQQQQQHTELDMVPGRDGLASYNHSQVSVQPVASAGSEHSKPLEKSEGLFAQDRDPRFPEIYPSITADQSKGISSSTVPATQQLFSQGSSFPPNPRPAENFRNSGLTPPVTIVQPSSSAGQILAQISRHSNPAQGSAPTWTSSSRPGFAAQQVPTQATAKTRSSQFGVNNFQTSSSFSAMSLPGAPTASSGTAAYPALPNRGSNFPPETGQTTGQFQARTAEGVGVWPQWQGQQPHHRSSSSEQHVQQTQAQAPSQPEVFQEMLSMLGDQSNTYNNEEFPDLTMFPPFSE

## COC(=O)c1csc(C(=O)c2c[nH]c3ccccc23)n1 [ITE, 2-(1H-Indol-3-ylcarbonyl)-4-thiazolecarboxylic acid methyl ester]
Mouse AhR (mAhR); [3]
  EC50 at 4 h: 22.3 ± 3.53 nM
Human AhR (hAhR)
  EC50: 184 ± 42.1 nM

## O=Cc1c2[nH]c3ccccc3c2cc2[nH]c3ccccc3c12 [FICZ, 6-formylindolo[3,2-b]carbazole]
Mouse AhR (mAhR); [3]
  EC50: 3.71 ± 0.85 nM

## Clc1cc2oc3cc(Cl)c(Cl)cc3c2cc1Cl [TCDF, 2,3,7,8-tetrachlorodibenzofuran]
Mouse AhR (mAhR); [3]
  EC50: 1.25 ± 0.65 nM
Human AhR (hAhR)
  EC50: 4.1 ± 0.79 nM

## O=C1Nc2ccccc2/C1=C1/Nc2ccccc2C1=O [IR, indirubin]
mAhR-hAhRLBD
  induction of luciferase activity, IR versus TCDD: significantly more efficacious inducer than TCDD
Mouse AhR (mAhR); mouse
  EC50: 15.6 ± 3.52 nM
hAhR
  induction of luciferase activity, IR versus TCDD: significantly more efficacious inducer than TCDD
Mutant A349T mAhR
  induction of luciferase activity, IR versus TCDD: significantly more efficacious inducer than TCDD
  maximal induction compared with wild-type mAhR: significantly increased above that of wild-type mAhR
AhR [1]
  less potent than TCDD as inducer of AhR-dependent gene expression: ~ 10 fold
Human AhR (hAhR); human HG2L6.1c1 cells
  more potent than TCDD, reporter gene induction: ~ 7 fold
AhR [2]
  greater potency than TCDD as inducer of AhR-dependent gene expression: 10 fold
